pEC50: −log10 of the molar value. Values belong to the molecule of their own block, whether it stands above or below them. The source made the active and inactive calls. No cut-off for these calls is given here.
What was measured:
[1] = biological target: T1, Taste receptor type 2 member 31 (Homo sapiens) (UniProt P59538); experiment: Antagonist activity at full-length human TAS2R44 expressed in HEK293T/Galpha16-gustducin 44 cells assessed as effect on calcium flux by measuring deltaF/F0 ratio at 25 uM in presence of 100 mM sucralose by Fluo-4 dye based FLIPR assay (reference value: 0.352 +/- 0.030); assay type: functional, cell-based
T1 sequence (whole entry): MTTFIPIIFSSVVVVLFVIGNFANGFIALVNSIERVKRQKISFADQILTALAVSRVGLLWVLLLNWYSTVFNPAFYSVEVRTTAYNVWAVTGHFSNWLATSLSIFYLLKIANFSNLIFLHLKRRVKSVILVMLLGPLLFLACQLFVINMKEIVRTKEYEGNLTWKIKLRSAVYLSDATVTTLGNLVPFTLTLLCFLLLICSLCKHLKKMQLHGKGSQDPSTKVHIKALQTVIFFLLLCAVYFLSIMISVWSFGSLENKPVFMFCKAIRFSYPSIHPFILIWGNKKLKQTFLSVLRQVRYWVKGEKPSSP

[2] = biological target: T1, Taste receptor type 2 member 31 (Homo sapiens); experiment: Antagonist activity at full-length human TAS2R44 expressed in HEK293T/Galpha16-gustducin 44 cells assessed as effect on calcium flux by measuring deltaF/F0 ratio at 25 uM in presence of 50 mM sucralose by Fluo-4 dye based FLIPR assay (reference value: 0.192 +/- 0.011); assay type: functional, cell-based
[3] = biological target: T1, Taste receptor type 2 member 31 (Homo sapiens); experiment: Antagonist activity at full-length human TAS2R44 expressed in HEK293T/Galpha16-gustducin 44 cells assessed as effect on calcium flux by measuring deltaF/F0 ratio at 25 uM in presence of 25 mM sucralose by Fluo-4 dye based FLIPR assay (reference value: 0.110 +/- 0.019); assay type: functional, cell-based
[4] = biological target: T1, Taste receptor type 2 member 31 (Homo sapiens); experiment: Antagonist activity at full-length human TAS2R44 expressed in HEK293T/Galpha16-gustducin 44 cells assessed as effect on calcium flux by measuring deltaF/F0 ratio at 25 uM in presence of 12.5 mM sucralose by Fluo-4 dye based FLIPR assay (reference value: 0.051 +/- 0.004); assay type: functional, cell-based
[5] = biological target: T1, Taste receptor type 2 member 31 (Homo sapiens); experiment: Antagonist activity at full-length human TAS2R44 expressed in HEK293T/Galpha16-gustducin 44 cells assessed as effect on calcium flux by measuring deltaF/F0 ratio at 25 uM in presence of 6.25 mM sucralose by Fluo-4 dye based FLIPR assay (reference value: 0.027 +/- 0.029); assay type: functional, cell-based
[6] = biological target: T1, Taste receptor type 2 member 31 (Homo sapiens); experiment: Antagonist activity at full-length human TAS2R44 expressed in HEK293T/Galpha16-gustducin 44 cells assessed as effect on calcium flux by measuring deltaF/F0 ratio at 25 uM in presence of 3.125 mM sucralose by Fluo-4 dye based FLIPR assay (reference value: 0.030 +/- 0.042); assay type: functional, cell-based
[7] = biological target: T1, Taste receptor type 2 member 31 (Homo sapiens); experiment: Antagonist activity at full-length human TAS2R44 expressed in HEK293T/Galpha16-gustducin 44 cells assessed as effect on calcium flux by measuring deltaF/F0 ratio at 25 uM in presence of 1.5625 mM sucralose by Fluo-4 dye based FLIPR assay (reference value: 0.042 +/- 0.039); assay type: functional, cell-based
[8] = biological target: T1, Taste receptor type 2 member 31 (Homo sapiens); experiment: Antagonist activity at full-length human TAS2R44 expressed in HEK293T/Galpha16-gustducin 44 cells assessed as effect on calcium flux by measuring deltaF/F0 ratio at 25 uM in presence of 0.7813 mM sucralose by Fluo-4 dye based FLIPR assay (reference value: 0.038 +/- 0.042); assay type: functional, cell-based
[9] = biological target: T1, Taste receptor type 2 member 31 (Homo sapiens); experiment: Antagonist activity at full-length human TAS2R44 expressed in HEK293T/Galpha16-gustducin 44 cells assessed as effect on calcium flux by measuring deltaF/F0 ratio at 25 uM in presence of 0.3906 mM sucralose by Fluo-4 dye based FLIPR assay (reference value: 0.046 +/- 0.048); assay type: functional, cell-based
HEK-293T = experiment: Effect on calcium flux in HEK293T/Galpha16-gustducin 44 cells assessed as effect on calcium flux by measuring deltaF/F0 ratio at 25 uM in presence of 100 mM sucralose by Fluo-4 dye based FLIPR assay (reference value: -0.179 +/- 0.023); assay type: functional, Homo sapiens
[10] = biological target: T2, Taste receptor type 2 member 16 (Homo sapiens) (UniProt Q9NYV7); experiment: Antagonist activity at full-length human TAS2R16 expressed in HEK293T/Galpha16-gustducin 44 cells assessed as effect on calcium flux by measuring deltaF/F0 ratio at 25 uM in presence of 10 mM phenyl-beta-glucopyranoside by Fluo-4 dye based FLIPR assay; assay type: functional, cell-based
T2 sequence (whole entry): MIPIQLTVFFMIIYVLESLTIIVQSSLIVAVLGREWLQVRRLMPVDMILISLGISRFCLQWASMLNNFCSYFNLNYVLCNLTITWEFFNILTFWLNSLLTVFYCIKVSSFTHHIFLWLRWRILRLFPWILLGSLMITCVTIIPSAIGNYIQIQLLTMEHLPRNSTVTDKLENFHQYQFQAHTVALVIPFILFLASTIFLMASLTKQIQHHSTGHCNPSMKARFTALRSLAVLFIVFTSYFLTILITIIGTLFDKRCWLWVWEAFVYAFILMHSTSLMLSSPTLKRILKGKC

[11] = biological target: T2, Taste receptor type 2 member 16 (Homo sapiens); experiment: Antagonist activity at full-length human TAS2R16 expressed in HEK293T/Galpha16-gustducin 44 cells assessed as effect on calcium flux by measuring deltaF/F0 ratio at 25 uM in presence of 5 mM phenyl-beta-glucopyranoside by Fluo-4 dye based FLIPR assay; assay type: functional, cell-based
[12] = biological target: T2, Taste receptor type 2 member 16 (Homo sapiens); experiment: Antagonist activity at full-length human TAS2R16 expressed in HEK293T/Galpha16-gustducin 44 cells assessed as effect on calcium flux by measuring deltaF/F0 ratio at 25 uM in presence of 2.5 mM phenyl-beta-glucopyranoside by Fluo-4 dye based FLIPR assay; assay type: functional, cell-based
[13] = biological target: T2, Taste receptor type 2 member 16 (Homo sapiens); experiment: Antagonist activity at full-length human TAS2R16 expressed in HEK293T/Galpha16-gustducin 44 cells assessed as effect on calcium flux by measuring deltaF/F0 ratio at 25 uM in presence of 1.25 mM phenyl-beta-glucopyranoside by Fluo-4 dye based FLIPR assay; assay type: functional, cell-based
[14] = biological target: T2, Taste receptor type 2 member 16 (Homo sapiens); experiment: Antagonist activity at full-length human TAS2R16 expressed in HEK293T/Galpha16-gustducin 44 cells assessed as effect on calcium flux by measuring deltaF/F0 ratio at 25 uM in presence of 0.625 mM phenyl-beta-glucopyranoside by Fluo-4 dye based FLIPR assay; assay type: functional, cell-based
[15] = biological target: T2, Taste receptor type 2 member 16 (Homo sapiens); experiment: Antagonist activity at full-length human TAS2R16 expressed in HEK293T/Galpha16-gustducin 44 cells assessed as effect on calcium flux by measuring deltaF/F0 ratio at 25 uM in presence of 0.3125 mM phenyl-beta-glucopyranoside by Fluo-4 dye based FLIPR assay; assay type: functional, cell-based
[16] = biological target: T2, Taste receptor type 2 member 16 (Homo sapiens); experiment: Antagonist activity at full-length human TAS2R16 expressed in HEK293T/Galpha16-gustducin 44 cells assessed as effect on calcium flux by measuring deltaF/F0 ratio at 25 uM in presence of 0.1563 mM phenyl-beta-glucopyranoside by Fluo-4 dye based FLIPR assay; assay type: functional, cell-based
[17] = biological target: T2, Taste receptor type 2 member 16 (Homo sapiens); experiment: Antagonist activity at full-length human TAS2R16 expressed in HEK293T/Galpha16-gustducin 44 cells assessed as effect on calcium flux by measuring deltaF/F0 ratio at 25 uM in presence of 0.0781 mM phenyl-beta-glucopyranoside by Fluo-4 dye based FLIPR assay; assay type: functional, cell-based
[18] = biological target: T2, Taste receptor type 2 member 16 (Homo sapiens); experiment: Antagonist activity at full-length human TAS2R16 expressed in HEK293T/Galpha16-gustducin 44 cells assessed as effect on calcium flux by measuring deltaF/F0 ratio at 25 uM in presence of 0.0391 mM phenyl-beta-glucopyranoside by Fluo-4 dye based FLIPR assay; assay type: functional, cell-based
[19] = biological target: T3, Taste receptor type 2 member 1 (Homo sapiens) (UniProt Q9NYW7); experiment: Antagonist activity at full-length human TAS2R1 expressed in HEK293T/Galpha16-gustducin 44 cells assessed as inhibition of sucralose-induced calcium flux at 25 uM by Fluo-4 dye based FLIPR assay; assay type: functional, cell-based
T3 sequence (whole entry): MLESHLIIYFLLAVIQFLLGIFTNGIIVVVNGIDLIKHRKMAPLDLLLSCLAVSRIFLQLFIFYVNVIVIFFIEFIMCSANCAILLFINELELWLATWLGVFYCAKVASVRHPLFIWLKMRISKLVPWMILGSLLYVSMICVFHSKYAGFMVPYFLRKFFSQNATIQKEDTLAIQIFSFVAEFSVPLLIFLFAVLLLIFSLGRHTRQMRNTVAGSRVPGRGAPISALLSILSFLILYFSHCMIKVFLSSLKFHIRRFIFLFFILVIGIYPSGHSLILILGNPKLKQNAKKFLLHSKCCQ

Homo sapiens = organism: Homo sapiens; experiment: Inhibition of 3 mM sucralose-induced bitter sensitivity in bitter sensitive human panelists tasting solution containing 3 mM sucralose with 13 ppm test compound; assay type: functional, organism-based
[20] = biological target: T2, Taste receptor type 2 member 16 (Homo sapiens); experiment: Antagonist activity at full-length human TAS2R16 expressed in HEK293T/Galpha16-gustducin 44 cells assessed as inhibition of P-beta-G-induced calcium flux by measuring P-beta-G EC50 at 25 uM by Fluo-4 dye based FLIPR assay; assay type: functional, cell-based
[21] = biological target: T2, Taste receptor type 2 member 16 (Homo sapiens); experiment: Activation of full-length human TAS2R16 expressed in HEK293T/Galpha16-gustducin 44 cells assessed as effect on calcium flux by measuring deltaF/F0 ratio at 10 mM by Fluo-4 dye based FLIPR assay; assay type: functional, cell-based
[22] = biological target: T2, Taste receptor type 2 member 16 (Homo sapiens); experiment: Activation of full-length human TAS2R16 expressed in HEK293T/Galpha16-gustducin 44 cells assessed as effect on calcium flux by measuring deltaF/F0 ratio at 5 mM by Fluo-4 dye based FLIPR assay; assay type: functional, cell-based
[23] = biological target: T2, Taste receptor type 2 member 16 (Homo sapiens); experiment: Activation of full-length human TAS2R16 expressed in HEK293T/Galpha16-gustducin 44 cells assessed as effect on calcium flux by measuring deltaF/F0 ratio at 2.5 mM by Fluo-4 dye based FLIPR assay; assay type: functional, cell-based
[24] = biological target: T2, Taste receptor type 2 member 16 (Homo sapiens); experiment: Activation of full-length human TAS2R16 expressed in HEK293T/Galpha16-gustducin 44 cells assessed as effect on calcium flux by measuring deltaF/F0 ratio at 1.25 mM by Fluo-4 dye based FLIPR assay; assay type: functional, cell-based
[25] = biological target: T2, Taste receptor type 2 member 16 (Homo sapiens); experiment: Activation of full-length human TAS2R16 expressed in HEK293T/Galpha16-gustducin 44 cells assessed as effect on calcium flux by measuring deltaF/F0 ratio at 0.625 mM by Fluo-4 dye based FLIPR assay; assay type: functional, cell-based
[26] = biological target: T2, Taste receptor type 2 member 16 (Homo sapiens); experiment: Activation of full-length human TAS2R16 expressed in HEK293T/Galpha16-gustducin 44 cells assessed as effect on calcium flux by measuring deltaF/F0 ratio at 0.3125 mM by Fluo-4 dye based FLIPR assay; assay type: functional, cell-based
[27] = biological target: T2, Taste receptor type 2 member 16 (Homo sapiens); experiment: Activation of full-length human TAS2R16 expressed in HEK293T/Galpha16-gustducin 44 cells assessed as effect on calcium flux by measuring deltaF/F0 ratio at 0.1563 mM by Fluo-4 dye based FLIPR assay; assay type: functional, cell-based
[28] = biological target: T2, Taste receptor type 2 member 16 (Homo sapiens); experiment: Activation of full-length human TAS2R16 expressed in HEK293T/Galpha16-gustducin 44 cells assessed as effect on calcium flux by measuring deltaF/F0 ratio at 0.0781 mM by Fluo-4 dye based FLIPR assay; assay type: functional, cell-based
[29] = biological target: T2, Taste receptor type 2 member 16 (Homo sapiens); experiment: Activation of full-length human TAS2R16 expressed in HEK293T/Galpha16-gustducin 44 cells assessed as effect on calcium flux by measuring deltaF/F0 ratio at 0.0391 mM by Fluo-4 dye based FLIPR assay; assay type: functional, cell-based
[30] = biological target: T4, Taste receptor type 2 member 16 (Homo sapiens, UniProt Q9NYV7); experiment: Activation of full-length human TAS2R16 expressed in HEK293T/Galpha16-gustducin 44 cells assessed as stimulation of calcium flux by measuring deltaF/F0 ratio by Fluo-4 dye based FLIPR assay; assay type: functional, cell-based
T4 sequence (Q9NYV7 whole entry): T2 sequence (whole entry)

Ratio [1]: 0.107
Ratio [2]: -0.025
Ratio [3]: -0.035
Ratio [4]: -0.015
Ratio [5]: 0
Ratio [6]: 0.005
Ratio [7]: 0.016
Ratio [8]: 0.01
Ratio [9]: 0.011
Ratio [10]: 2.83
Ratio [11]: 2.65
Ratio [12]: 2.48
Ratio [13]: 2.37
Ratio [14]: 2.14
Ratio [15]: 1.55
Ratio [16]: 0.702
Ratio [17]: 0.108
Ratio [18]: -0.013
inhibition [19]: Active
Structure (SMILES): CC1=CCC(C/C=C/C(=O)O)C1(C)C (centres undefined)
Ratio (HEK-293T): -0.175
inhibition (Homo sapiens): Active

inhibition [19]: inactive
inhibition [20]: inactive
Structure (SMILES): CC1CCC(CCCC(N)=O)C1(C)C (centres undefined)
Activity (HEK-293T; Homo sapiens): inactive

Ratio [21]: 2.88
Ratio [22]: 2.69
Ratio [23]: 2.58
Ratio [24]: 2.36
Ratio [25]: 2.28
Ratio [26]: 1.81
Ratio [27]: 0.926
Ratio [28]: 0.213
Ratio [29]: 0.012
pEC50 [30]: 3.68
Structure (SMILES): OC[C@H]1O[C@@H](Oc2ccccc2)[C@H](O)[C@@H](O)[C@@H]1O
